Assay results reported in US20050043374A1, “Aryl substituted oxazolidinones with antibacterial activity” (priority 2001, published 2005).
≈ marks a conversion by molar mass, not a printed value.

Tests used:
Assay type in all cases: cell-based
[1] = test system: Streptococcus pneumoniae; assay: MIC, agar with 5% defibrinated horse blood, streptococci; conditions: 10^4 CFU/spot, 37° C., 5% carbon dioxide, 48 hours
Protocol: (§1) The following results were obtained on a standard in-vitro test system. The activity is described in terms of the minimum inhibitory concentration (MIC) determined by the agar-dilution technique with an inoculum size of 10^4 CFU/spot. Typically, compounds are active in the range 0.01 to 256 μg/ml.
(§2) Streptococci and enterococci were tested on agar supplemented with 5% defibrinated horse blood, an inoculum of 10^4 CFU/spot and an incubation temperature of 37° C. in an atmosphere of 5% carbon dioxide for 48 hours—blood is required for the growth of some of the test organisms. Fastidious Gram negative organisms were tested in Mueller-Hinton broth, supplemented with hemin and NAD, grown aerobically for 24 hours at 37° C., and with an innoculum of 5×10^4 CFU/well.

[2] = test system: Streptococcus pyogenes; assay: as above; conditions: 10^4 CFU/spot, 37° C., 5% carbon dioxide, 48 hours
Protocol: as §1, §2

[3] = test system: Moraxella catarrhalis; assay: MIC, Mueller-Hinton broth with hemin and NAD, fastidious Gram negative organisms; conditions: aerobic, 24 hours, 37° C., 5×10^4 CFU/well
Protocol: as §1, §2

[4] = test system: Haemophilus influenzae; assay: as above; conditions: aerobic, 24 hours, 37° C., 5×10^4 CFU/well
Protocol: as §1, §2

[5] = test system: Staphylococcus aureus MSQS (methicillin sensitive and quinolone sensitive); assay: MIC, agar dilution, staphylococci; conditions: inoculum 10^4 CFU/spot, 37° C., 24 hours
Protocol: as §1
(§3) Staphylococci were tested on agar, using an inoculum of 10^4 CFU/spot and an incubation temperature of 37° C. for 24 hours—standard test conditions for the expression of methicillin resistance.

[6] = test system: Staphylococcus aureus MRQR (methicillin resistant and quinolone resistant); assay: MIC, agar dilution, staphylococci; conditions: inoculum 10^4 CFU/spot, 37° C., 24 hours
Protocol: as §1, §3

MIC [1]: 0.125 µg/mL (≈ 0.337 µM)
MIC [2]: 0.125 µg/mL (≈ 0.337 µM)
MIC [3]: 0.5 µg/mL (≈ 1.35 µM)
MIC [4]: 2 µg/mL (≈ 5.39 µM)
MIC [5]: 0.125 µg/mL (≈ 0.337 µM)
MIC [6]: 0.25 µg/mL (≈ 0.673 µM)
Compound: N#Cc1nnc(-c2ccc(N3C[C@H](Cn4ccnn4)OC3=O)cc2F)s1 [Example 1, (5R)-3-(3-Fluoro-4-(5-cyano-1,3,4-thiadiazol-2-yl)phenyl)-5-(1H-1,2,3-triazol-1-ylmethyl)-1,3-oxazolidin-2-one]
